In publication PMC8405607 (British Journal of Cancer, 2021):
Like-named read-outs stand apart in the source and are kept apart here.

Legend:
[1] = phase I clinical plasma pharmacokinetics (noncompartmental); Reg 1: 3qw continuous; Reg 3: 3qw 2 weeks on/1 week off; assay type: in vivo, human; conditions: for AUC(0-t): read-out: AUClast, Mean (SD); for Cmax: read-out: Cmax, Mean (SD)
Procedure: Antitumor efficacy was assessed using computerised tomography (CT)/magnetic resonance imaging assessment at baseline and every 8 weeks until disease progression or the initiation of subsequent antineoplastic therapy or death, whichever occurred first. In addition, the criteria for determining confirmed partial response (PR) or complete response (CR) were required to be present for at least 4 weeks. Demographic and other baseline data and PK/PD parameters were summarised using descriptive statistics.[11] PK parameters were estimated using noncompartmental methods (Phoenix®, Pharsight, Mountain View, California, USA).

GDF-15 = assay: indirect response PK/PD model of serum GDF-15; assay type: in vivo, human
Text: A total of 1919 observations (924 plasma PK, 717 platelet, and 278 GDF-15 measurements) and 20 platelet transfusion events derived from 46 patients were included in the dataset (data cutoff, January 2016). […] We used the stochastic approximation of the expectation-maximisation (SAEM) algorithm[13] implemented in the Monolix software (version 4.3.2, Lixoft) to estimate the fixed (population-level typical values) and random (inter-individual variability) effects for each model parameter and a residual error.
A semi-mechanistic model mimicking hematopoietic cell maturation and regulation was developed to describe the time course of platelet kinetics and drug action on immature cells and modified from Friberg et al.[14] […]
Models were evaluated based on the change in the Akaike’s information criterion (AIC) value, the convergence of the SAEM algorithm, the precision of the parameter estimates (NLME derived % relative standard error [RSE%]) and decreases in IIV and residual variability. […] The predictive performance of the final models was evaluated by simulating 500 datasets using parameter estimates (fixed and random effects) and plotting a visual predictive check (Supplementary Fig. S5). For serum GDF-15, serum concentration levels above the upper limit of quantification (>50,000 pg/mL) were handled as right-censored data. […]

[2] = human, plasma, oral, 300 mg, 300 mg Reg.3, Cycle 1 Day 12, n 6
[3] = human, plasma, oral, 500 mg, 500 mg Reg.3, Cycle 1 Day 12, n 5

## COc1cc2c(cc1OC(C)C)[C@H](c1ccc(Cl)cc1)N(c1ccc(N(C)C[C@H]3CC[C@H](N4CCN(C)C(=O)C4)CC3)cc1)C(=O)C2 [CGM097]
[1]; 10–700 mg, single and repeated doses
  dose proportionality of AUClast and Cmax: no major deviation from dose proportionality
[1]; human, plasma, oral, 10 mg, 10 mg Reg.1, Cycle 1 Day 1, n 3, Tlast=24h
  AUC(0-t): 1740 ng·h/mL
[1]; human, plasma, oral, 10 mg, 10 mg Reg.1, Cycle 1 Day 1, n 3
  Cmax: 162 ng/mL
[1]; human, plasma, oral, 10 mg, 10 mg Reg.1, Cycle 1 Day 8, n 3, Tlast=8h
  AUC(0-t): 749 ng·h/mL
[1]; human, plasma, oral, 10 mg, 10 mg Reg.1, Cycle 1 Day 8, n 3
  Cmax: 135 ng/mL
[1]; human, plasma, oral, 10 mg, 10 mg Reg.1, Cycle 2 Day 1, n 3, Tlast=8h
  AUC(0-t): 855 ng·h/mL
[1]; human, plasma, oral, 10 mg, 10 mg Reg.1, Cycle 2 Day 1, n 3
  Cmax: 151 ng/mL
[1]; human, plasma, oral, 20 mg, 20 mg Reg.1, Cycle 1 Day 1, n 4, Tlast=24h
  AUC(0-t): 3640 ng·h/mL
[1]; human, plasma, oral, 20 mg, 20 mg Reg.1, Cycle 1 Day 1, n 4
  Cmax: 226 ng/mL
[1]; human, plasma, oral, 20 mg, 20 mg Reg.1, Cycle 1 Day 8, n 3, Tlast=8h
  AUC(0-t): 1900 ng·h/mL
[1]; human, plasma, oral, 20 mg, 20 mg Reg.1, Cycle 1 Day 8, n 4
  Cmax: 292 ng/mL
[1]; human, plasma, oral, 20 mg, 20 mg Reg.1, Cycle 2 Day 1, n 2, Tlast=8h
  AUC(0-t): 2470 ng·h/mL
[1]; human, plasma, oral, 20 mg, 20 mg Reg.1, Cycle 2 Day 1, n 2
  Cmax: 417 ng/mL
[1]; human, plasma, oral, 40 mg, 40 mg Reg.1, Cycle 1 Day 1, n 4, Tlast=24h
  AUC(0-t): 8640 ng·h/mL
[1]; human, plasma, oral, 40 mg, 40 mg Reg.1, Cycle 1 Day 1, n 4
  Cmax: 648 ng/mL
[1]; human, plasma, oral, 40 mg, 40 mg Reg.1, Cycle 1 Day 8, n 1, Tlast=8h
  AUC(0-t): 4560 ng·h/mL
[1]; human, plasma, oral, 40 mg, 40 mg Reg.1, Cycle 1 Day 8, n 2
  Cmax: 776 ng/mL
[1]; human, plasma, oral, 40 mg, 40 mg Reg.1, Cycle 2 Day 1, n 3, Tlast=8h
  AUC(0-t): 4410 ng·h/mL
[1]; human, plasma, oral, 40 mg, 40 mg Reg.1, Cycle 2 Day 1, n 3
  Cmax: 780 ng/mL
[1]; human, plasma, oral, 80 mg, 80 mg Reg.1, Cycle 1 Day 1, n 4, Tlast=24h
  AUC(0-t): 25800 ng·h/mL
[1]; human, plasma, oral, 80 mg, 80 mg Reg.1, Cycle 1 Day 1, n 4
  Cmax: 1700 ng/mL
[1]; human, plasma, oral, 80 mg, 80 mg Reg.1, Cycle 1 Day 8, n 4, Tlast=8h
  AUC(0-t): 12600 ng·h/mL
[1]; human, plasma, oral, 80 mg, 80 mg Reg.1, Cycle 1 Day 8, n 4
  Cmax: 1990 ng/mL
[1]; human, plasma, oral, 80 mg, 80 mg Reg.1, Cycle 2 Day 1, n 3, Tlast=8h
  AUC(0-t): 13800 ng·h/mL
[1]; human, plasma, oral, 80 mg, 80 mg Reg.1, Cycle 2 Day 1, n 3
  Cmax: 2150 ng/mL
[1]; human, plasma, oral, 150 mg, 150 mg Reg.1, Cycle 1 Day 1, n 4, Tlast=24h
  AUC(0-t): 28400 ng·h/mL
[1]; human, plasma, oral, 150 mg, 150 mg Reg.1, Cycle 1 Day 1, n 4
  Cmax: 2170 ng/mL
[1]; human, plasma, oral, 150 mg, 150 mg Reg.1, Cycle 1 Day 8, n 3, Tlast=8h
  AUC(0-t): 19300 ng·h/mL
[1]; human, plasma, oral, 150 mg, 150 mg Reg.1, Cycle 1 Day 8, n 3
  Cmax: 3280 ng/mL
[1]; human, plasma, oral, 150 mg, 150 mg Reg.1, Cycle 2 Day 1, n 4, Tlast=8h
  AUC(0-t): 18400 ng·h/mL
[1]; human, plasma, oral, 150 mg, 150 mg Reg.1, Cycle 2 Day 1, n 4
  Cmax: 2840 ng/mL
[1]; human, plasma, oral, 300 mg, 300 mg Reg.1, Cycle 1 Day 1, n 7, Tlast=24h
  AUC(0-t): 76100 ng·h/mL
[1]; human, plasma, oral, 300 mg, 300 mg Reg.1, Cycle 1 Day 1, n 7
  Cmax: 5640 ng/mL
[1]; human, plasma, oral, 300 mg, 300 mg Reg.1, Cycle 1 Day 8, n 5, Tlast=8h
  AUC(0-t): 48400 ng·h/mL
[1]; human, plasma, oral, 300 mg, 300 mg Reg.1, Cycle 1 Day 8, n 5
  Cmax: 7570 ng/mL
[1]; human, plasma, oral, 300 mg, 300 mg Reg.1, Cycle 2 Day 1, n 4, Tlast=8h
  AUC(0-t): 52400 ng·h/mL
[1]; human, plasma, oral, 300 mg, 300 mg Reg.1, Cycle 2 Day 1, n 4
  Cmax: 8020 ng/mL
[1]; human, plasma, oral, 300 mg, 300 mg Reg.3, Cycle 1 Day 1, n 6, Tlast=24h
  AUC(0-t): 44300 ng·h/mL
[1]; human, plasma, oral, 300 mg, 300 mg Reg.3, Cycle 1 Day 1, n 6
  Cmax: 3060 ng/mL
[1]; human, plasma, oral, 300 mg, 300 mg Reg.3, Cycle 1 Day 8, n 6, Tlast=8h
  AUC(0-t): 24500 ng·h/mL
[1]; human, plasma, oral, 300 mg, 300 mg Reg.3, Cycle 1 Day 8, n 6
  Cmax: 3910 ng/mL
[1]; [2]
  AUC(0-t): 166000 ng·h/mL
  Cmax: 4380 ng/mL
[1]; human, plasma, oral, 300 mg, 300 mg Reg.3, Cycle 2 Day 1, n 4, Tlast=8h
  AUC(0-t): 16400 ng·h/mL
[1]; human, plasma, oral, 300 mg, 300 mg Reg.3, Cycle 2 Day 1, n 5
  Cmax: 2710 ng/mL
[1]; human, plasma, oral, 400 mg, 400 mg Reg.1, Cycle 1 Day 1, n 4, Tlast=24h
  AUC(0-t): 83600 ng·h/mL
[1]; human, plasma, oral, 400 mg, 400 mg Reg.1, Cycle 1 Day 1, n 5
  Cmax: 4710 ng/mL
[1]; human, plasma, oral, 400 mg, 400 mg Reg.1, Cycle 1 Day 8, n 3, Tlast=8h
  AUC(0-t): 42900 ng·h/mL
[1]; human, plasma, oral, 400 mg, 400 mg Reg.1, Cycle 1 Day 8, n 3
  Cmax: 6700 ng/mL
[1]; human, plasma, oral, 400 mg, 400 mg Reg.1, Cycle 2 Day 1, n 5, Tlast=8h
  AUC(0-t): 46800 ng·h/mL
[1]; human, plasma, oral, 400 mg, 400 mg Reg.1, Cycle 2 Day 1, n 5
  Cmax: 6960 ng/mL
[1]; human, plasma, oral, 500 mg, 500 mg Reg.3, Cycle 1 Day 1, n 6, Tlast=24h
  AUC(0-t): 76100 ng·h/mL
[1]; human, plasma, oral, 500 mg, 500 mg Reg.3, Cycle 1 Day 1, n 6
  Cmax: 4640 ng/mL
[1]; human, plasma, oral, 500 mg, 500 mg Reg.3, Cycle 1 Day 8, n 4, Tlast=8h
  AUC(0-t): 41800 ng·h/mL
[1]; human, plasma, oral, 500 mg, 500 mg Reg.3, Cycle 1 Day 8, n 6
  Cmax: 7540 ng/mL
[1]; [3]
  AUC(0-t): 503000 ng·h/mL
  Cmax: 10700 ng/mL
[1]; human, plasma, oral, 500 mg, 500 mg Reg.3, Cycle 2 Day 1, n 6, Tlast=8h
  AUC(0-t): 26800 ng·h/mL
[1]; human, plasma, oral, 500 mg, 500 mg Reg.3, Cycle 2 Day 1, n 6
  Cmax: 4810 ng/mL
[1]; human, plasma, oral, 700 mg, 700 mg Reg.3, Cycle 1 Day 1, n 5, Tlast=24h
  AUC(0-t): 79100 ng·h/mL
[1]; human, plasma, oral, 700 mg, 700 mg Reg.3, Cycle 1 Day 1, n 5
  Cmax: 5590 ng/mL
[1]; human, plasma, oral, 700 mg, 700 mg Reg.3, Cycle 1 Day 8, n 4, Tlast=8h
  AUC(0-t): 58200 ng·h/mL
[1]; human, plasma, oral, 700 mg, 700 mg Reg.3, Cycle 1 Day 8, n 4
  Cmax: 9570 ng/mL
[1]; human, plasma, oral, 700 mg, 700 mg Reg.3, Cycle 1 Day 12, n 2
  AUC(0-t): 237000 ng·h/mL
[1]; human, plasma, oral, 700 mg, 700 mg Reg.3, Cycle 1 Day 12, n 3
  Cmax: 9240 ng/mL
[1]; human, plasma, oral, 700 mg, 700 mg Reg.3, Cycle 2 Day 1, n 4, Tlast=8h
  AUC(0-t): 35800 ng·h/mL
[1]; human, plasma, oral, 700 mg, 700 mg Reg.3, Cycle 2 Day 1, n 4
  Cmax: 5860 ng/mL
[1]; human, plasma, oral, fasted state, across dose groups, read-out: median Tmax
  Tmax: 1.6 to 4.17 h
GDF-15; intermittent 2 weeks on/1 week off dosing
  GDF-15 level prior to the next treatment cycle: return of GDF-15 level to baseline
GDF-15; population estimate
  Sg, Drug potency (GDF-15 production): 0.00078 mL/ng
